Assay type in all cases: in vivo
One assay concerns PDX TNBC Model CTG-0018. As to the kind of experiment: Antitumor effects in PDX mouse model of TNBC. Particulars: PDX model CTG-0018; A 10 mg/kg SC BID 3 days on/4 off ×4; B 7.5 mg/kg PO BID×28; versus vehicle. An excerpt:
(§1) Establish PDX tumor models from viable human tumor tissue and serially passage in immunocompromised female mice a limited number of times. Using tumor fragments harvested from donor host animals, perform unilateral subcutaneous implants from a specific passage of the PDX tumor model on the flanks of the experimental animals. When tumor volumes reach approximately 150-250 mm^3 in size, randomize the animals by treatment arm by randomization techniques well known in the art and place into their respective treatment groups using 1 animal per treatment group (3 animals in an untreated group). Formulate CHK1 inhibitor, 5-(5-(2-(3-aminopropoxy)-6-methoxyphenyl)-1H-pyrazol-3-ylamino)pyrazine-2-carbonitrile methanesulfonate hydrate, (Compound A) every 14 days in 20% captisol (dissolved in water) and administer subcutaneously twice daily at a dose of 10 mg/kg on days 1/2/3 of a weekly cycle for 4 weeks (SC, BID [3 days on/4 off]×4). Formulate the PI3K/mTOR dual inhibitor, 8-[5-(1-hydroxy-1-methylethyl)pyridin-3-yl]-1-[(2S)-2-methoxypropyl]-3-methyl-1,3-dihydro-2H-imidazo[4,5-c]quinolin-2-one, (Compound B) weekly in 1% (HEC)/0.25% Tween 80 (Polysorbate 80)/0.05% Dow-Corning Antifoam 1510-US and administer by oral gavage twice-daily for 28 days (PO, BID×28) at a dose of 7.5 mg/kg. Dose combination treatment animals with both compounds according to the schedule described above for monotherapy, and dose vehicle treatment animals with vehicle according to the schedule for Compound B.
(§2) Test the combination of Compound A and Compound B, as well as their respective monotherapies, in 40 PDX models (Table 1) of TNBC. Assess antitumor efficacy of the treatment groups by measuring tumor volume via caliper measurements twice a week during the course of the study. Measure body weight twice weekly during the course of the study as a general indicator of tolerability.
(§3) Capture tumor size and body weight twice per week. Estimate tumor volume (V) by using the formula: V=(π/6)×L×W^2 where L=larger of measured diameter and W=smaller perpendicular diameter. Calculate relative tumor volume using the tumor volume measurement taken nearest to the last day of dosing for each animal (T), divided by the baseline tumor volume for that animal (T0), which is the volume recorded on or just prior to the first day of dosing, Y=T/T0. Calculate % ΔT/ΔC values using the formula % ΔT/ΔC=100(YT−1)/(YC−1), whereby YT or YC=geometric mean relative volume of the compound treated group or the control group, respectively. Tumor growth inhibition is observed in those instances where the calculated values for % ΔT/ΔC are less than 100% whereby greater inhibition results in smaller % ΔT/ΔC values. If ΔT<0, then a tumor regression value is calculated instead of % ΔT/ΔC whereby % Regression=100(YT−1). Note that negative values indicate regression. We collectively refer to % ΔT/ΔC and % Regression as % Response.
(§4) Examine relative tumor volume (final volume divided by baseline volume) on the last day of treatment or the last day on which data from all three treatment groups and vehicle is available, if it is earlier than the last day of treatment and at least 14 days after baseline. Expected additive relative volume is determined using the Bliss method (Bliss, C. I., Ann Appl Biol, 1939; 26(3):585-615). Specifically, denoting Y=relative volume, YExp=(Y1*Y2)/YV, where YExp=expected additive relative volume, Y1 and Y2 are the relative volumes in the single agent groups (Compound A and Compound B), and YV is the relative volume in the vehicle group. A range of additivity is defined around the expected additive relative volume via upper and lower limits as follows:
(§5) Yupper=max(2*YExp,YExp+0.2)
(§6) Ylower=min(YExp/2,YExp−0.2)
(§7) The upper limit of the range is the larger of 2-fold above or 20% above the expected additive relative volume, and the lower limit is the smaller of 2-fold below or 20% below the expected additive relative volume. […]

In another assay the test system is PDX TNBC Model CTG-0869. As to the kind of experiment: Antitumor effects in PDX mouse model of TNBC. Particulars: PDX model CTG-0869; A 10 mg/kg SC BID 3 days on/4 off ×4; B 7.5 mg/kg PO BID×28; versus vehicle.
Text: as §1, §2, §3, §4, §5, §6, §7

Another assay has as its system PDX TNBC Model CTG-1151. Nature of the assay: Antitumor effects in PDX mouse model of TNBC. The following applies: PDX model CTG-1151; A 10 mg/kg SC BID 3 days on/4 off ×4; B 7.5 mg/kg PO BID×28; versus vehicle.
Text: as §1, §2, §3, §4, §5, §6, §7

The next assay relates to PDX TNBC Model CTG-1340. As to the kind of experiment: Antitumor effects in PDX mouse model of TNBC. The following applies: PDX model CTG-1340; A 10 mg/kg SC BID 3 days on/4 off ×4; B 7.5 mg/kg PO BID×28; versus vehicle.
Text: as §1, §2, §3, §4, §5, §6, §7

The test system of the next assay is PDX TNBC Model CTG-1408. As to the kind of experiment: Antitumor effects in PDX mouse model of TNBC. The following applies: PDX model CTG-1408; A 10 mg/kg SC BID 3 days on/4 off ×4; B 7.5 mg/kg PO BID×28; versus vehicle.
Text: as §1, §2, §3, §4, §5, §6, §7

The subject of the next assay is PDX TNBC Model CTG-1453. Nature of the assay: Antitumor effects in PDX mouse model of TNBC. Particulars: PDX model CTG-1453; A 10 mg/kg SC BID 3 days on/4 off ×4; B 7.5 mg/kg PO BID×28; versus vehicle.
Text: as §1, §2, §3, §4, §5, §6, §7

In another assay the test system is PDX TNBC Model MAXF 449. Nature of the assay: Antitumor effects in PDX mouse model of TNBC. Particulars: PDX model MAXF 449; A 10 mg/kg SC BID 3 days on/4 off ×4; B 7.5 mg/kg PO BID×28; versus vehicle.
Text: as §1, §2, §3, §4, §5, §6, §7

The test system of the next assay is PDX TNBC Model MAXF 574. As to the kind of experiment: Antitumor effects in PDX mouse model of TNBC. Particulars: PDX model MAXF 574; A 10 mg/kg SC BID 3 days on/4 off ×4; B 7.5 mg/kg PO BID×28; versus vehicle.
Text: as §1, §2, §3, §4, §5, §6, §7

Another assay deals with PDX TNBC Model MAXF 857. Nature of the assay: Antitumor effects in PDX mouse model of TNBC. The following applies: PDX model MAXF 857; A 10 mg/kg SC BID 3 days on/4 off ×4; B 7.5 mg/kg PO BID×28; versus vehicle.
Text: as §1, §2, §3, §4, §5, §6, §7

In the next assay the test system is PDX TNBC Model MAXF MX1. As to the kind of experiment: Antitumor effects in PDX mouse model of TNBC. Particulars: A 10 mg/kg SC BID 3 days on/4 off ×4, B 7.5 mg/kg PO BID×28, versus vehicle.
Text: as §1, §2, §3, §4, §5, §6, §7

For the next assay, the system named is PDX TNBC Model ST2057. Nature of the assay: Antitumor effects in PDX mouse model of TNBC. Particulars: A 10 mg/kg SC BID 3 days on/4 off ×4, B 7.5 mg/kg PO BID×28, versus vehicle.
Text: as §1, §2, §3, §4, §5, §6, §7

For the next assay, the system named is PDX TNBC Model ST518. Nature of the assay: Antitumor effects in PDX mouse model of TNBC. Particulars: A 10 mg/kg SC BID 3 days on/4 off ×4, B 7.5 mg/kg PO BID×28, versus vehicle.
Text: as §1, §2, §3, §4, §5, §6, §7

The next assay concerns PDX mouse models of TNBC. As to the kind of experiment: Antitumor effects across the panel of 40 PDX mouse models of TNBC. The following applies: range across PDX TNBC models of Table 4.
Text: Establish PDX tumor models from viable human tumor tissue and serially passage in immunocompromised female mice a limited number of times. Using tumor fragments harvested from donor host animals, perform unilateral subcutaneous implants from a specific passage of the PDX tumor model on the flanks of the experimental animals. When tumor volumes reach approximately 150-250 mm^3 in size, randomize the animals by treatment arm by randomization techniques well known in the art and place into their respective treatment groups using 1 animal per treatment group (3 animals in an untreated group). […]
as §3, with “Calculate % ΔT/ΔC values using the formula % ΔT/ΔC=100(YT−1)/(YC−1), whereby YT or YC=geometric mean relative volume of the compound treated group or the control group, respectively.” left out, “Note that negative values indicate regression. We collectively refer to % ΔT/ΔC and % Regression as % Response.” left out

Turning to `COc1cccc(OCCCN)c1-c1cc(Nc2cnc(C#N)cn2)n[nH]1.CS(=O)(=O)O` [Compound A, 5-(5-(2-(3-aminopropoxy)-6-methoxyphenyl)-1H-pyrazol-3-ylamino)pyrazine-2-carbonitrile methanesulfonate hydrate], the “% Rsp. (% ΔT/ΔC or % Regression)” value is on record as −57.6% with PDX TNBC Model CTG-0018; 52.6% in the assay with PDX TNBC Model CTG-0869; −84.6% in the assay with PDX TNBC Model CTG-1151; 41.0% with PDX TNBC Model CTG-1340; 11.1% with PDX TNBC Model CTG-1408; 2.3% with PDX TNBC Model CTG-1453. The “% Rsp. (% ΔT/ΔC or % Regression)” value with PDX TNBC Model MAXF 449 was −100.0%; in the assay on PDX TNBC Model MAXF 574 it was 22.9%; in the assay with PDX TNBC Model MAXF 857, 32.4%; with PDX TNBC Model MAXF MX1 it was 126.1%; in the assay on PDX TNBC Model ST2057 it was 44.8%; in the assay with PDX TNBC Model ST518, −23.4%. Also, the “efficacy values, % response, range over the models” value in the assay with PDX mouse models of TNBC was 126.1% to −100.
Turning to `CO[C@@H](C)Cn1c(=O)n(C)c2cnc3ccc(-c4cncc(C(C)(C)O)c4)cc3c21` [Compound B, 8-[5-(1-hydroxy-1-methylethyl)pyridin-3-yl]-1-[(2S)-2-methoxypropyl]-3-methyl-1,3-dihydro-2H-imidazo[4,5-c]quinolin-2-one], the “% Rsp. (% ΔT/ΔC or % Regression)” value is 86.0% with PDX TNBC Model CTG-0018; 64.9% in the assay on PDX TNBC Model CTG-0869; 92.5% in the assay on PDX TNBC Model CTG-1151; 17.1% in the assay on PDX TNBC Model CTG-1340; 27.5% in the assay with PDX TNBC Model CTG-1408; −6.9% in the assay on PDX TNBC Model CTG-1453. Further, the “% Rsp. (% ΔT/ΔC or % Regression)” value turned out to be 34.7% in the assay on PDX TNBC Model MAXF 449; 59.4% in the assay on PDX TNBC Model MAXF 574; 72.7% in the assay with PDX TNBC Model MAXF 857; 163.0% in the assay on PDX TNBC Model MAXF MX1; 26.9% with PDX TNBC Model ST2057; 66.5% in the assay on PDX TNBC Model ST518. Besides, in the assay with PDX mouse models of TNBC, the “efficacy values, % response, range over the models” value is listed as 163% to −31.

Values taken from patent US20180228795A1, “COMBINATION THERAPY FOR CANCER” (Eli Lilly and Company, priority 2015, published 2018).
